Assay results as given in patent publication US20260001928A1 (CORTERIA PHARMACEUTICALS, priority 2022, published 2026).
*1 amine or outer side, *2 acyl side, *3 side chain or, on linkers, in order; H or OH if unused. Where a SMILES comes first, the peptide text is derived from it. Side-chain parts run from the residue outwards. [ ]: non-standard residue; d: D form. The star is where a group is joined. C20 diacid = O=C(O)CCCCCCCCCCCCCCCCCCC(=O)*; C18 diacid = O=C(O)CCCCCCCCCCCCCCCCC(=O)*; C16 diacid = O=C(O)CCCCCCCCCCCCCCC(=O)*; γGlu = O=C(O)[C@H](CCC(=O)[*:2])N[*:1]; C14 diacid = O=C(O)CCCCCCCCCCCCC(=O)*; C12 diacid = O=C(O)CCCCCCCCCCC(=O)*; NMeI = CC[C@H](C)[C@H](NC)C(=O)O; Lauroyl = CCCCCCCCCCCC(=O)*; NMeV = CN[C@H](C(=O)O)C(C)C; Api = NC1(C(=O)O)CCNCC1; Pentanoyl = CCCCC(=O)*; AEEA = NCCOCCOCC(=O)O; Aib = CC(C)(N)C(=O)O

Assays:
[1] = target: T1, human CRF2a receptor (Homo sapiens, UniProt Q13324); assay: Activity at human CRF2a receptor, cAMP functional assay in TeloHEAC cells; type: cell-based; details: TeloHEAC cells stably expressing human CRF2a receptor, relative to urocortin 2 (100 nM = 100%)
T1 construct: expressed in transfected cells; host or cells: TeloHEAC cells
T1 sequence (Q13324 1-411): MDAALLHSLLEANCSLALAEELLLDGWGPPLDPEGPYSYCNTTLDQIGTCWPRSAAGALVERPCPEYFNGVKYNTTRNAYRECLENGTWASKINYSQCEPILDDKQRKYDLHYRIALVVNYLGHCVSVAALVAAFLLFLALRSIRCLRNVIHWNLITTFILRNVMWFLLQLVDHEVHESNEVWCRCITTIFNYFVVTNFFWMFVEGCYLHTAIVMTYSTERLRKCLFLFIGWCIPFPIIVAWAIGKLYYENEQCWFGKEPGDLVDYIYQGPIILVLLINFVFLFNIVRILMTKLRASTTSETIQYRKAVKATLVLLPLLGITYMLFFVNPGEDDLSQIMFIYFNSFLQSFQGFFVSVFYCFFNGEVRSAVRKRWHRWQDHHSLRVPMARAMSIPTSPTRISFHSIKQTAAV
How it was run: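 TeloHEAC cells stably expressing human CRF2a (10000 cells/well, suspended in HBSS/20 mM HEPES with 2 mM IBMX) were exposed to compounds for 30 min at 37 °C. cAMP was read as the 665/620 nm fluorescence ratio after 1 h at room temperature. EC50 was derived relative to 100 nM urocortin 2, set as 100%.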

[2] = target: T2, CFR1R receptor (Homo sapiens, UniProt P34998); assay: Activity at anti-target CFR1R receptor, cAMP assay in CRF1R-overexpression CHO-K1 cells; type: cell-based; details: 100% = Sauvagine at 100 nM; for EC50: cAMP
T2 construct: host or cells: CHO-K1 (clone 2)
T2 sequence (P34998 24-415): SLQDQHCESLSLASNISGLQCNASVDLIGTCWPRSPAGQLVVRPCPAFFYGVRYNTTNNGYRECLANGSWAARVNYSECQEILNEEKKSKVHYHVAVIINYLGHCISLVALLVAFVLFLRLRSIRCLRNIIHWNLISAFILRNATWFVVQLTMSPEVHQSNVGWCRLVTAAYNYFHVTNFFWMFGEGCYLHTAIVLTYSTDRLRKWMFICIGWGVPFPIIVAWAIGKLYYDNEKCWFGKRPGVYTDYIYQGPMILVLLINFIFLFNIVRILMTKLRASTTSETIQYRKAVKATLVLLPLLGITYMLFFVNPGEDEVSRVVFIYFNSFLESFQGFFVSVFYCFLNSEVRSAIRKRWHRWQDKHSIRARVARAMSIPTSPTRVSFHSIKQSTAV
How it was run: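 cAMP readout in CRF1R-overexpressing CHO-K1 cells (clone 2), run as for the TeloHAEC assay at 4000 cells/well final. Cells came from cryopreserved banks. Sauvagine at 100 nM defined 100% activation.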

SMILES	EC50 [1] [nM]	Emax (% I) [2] [% I]	EC50 [2] [nM]
CC[C@H](C)[C@H](NC)C(=O)N[C@H](C(=O)N[C@@H](CC(C)C)C(=O)N[C@@H](CO)C(=O)N[C@@H](CC(C)C)C(=O)N[C@@H](CC(=O)O)C(=O)N[C@@H](C(=O)N1CCC[C@H]1C(=O)N[C@H](C(=O)N[C@@H](CCCCN)C(=O)N[C@@H](CC(C)C)C(=O)N[C@@H](CCCCNC(=O)CC[C@H](NC(=O)CCCCCCCCCCC(=O)O)C(=O)O)C(=O)N[C@@H](CCCCN)C(=O)N[C@H](C(=O)N[C@@H](CC(C)C)C(=O)N[C@@H](CC(C)C)C(=O)N[C@@H](CCC(=O)O)C(=O)N[C@@H](CCC(N)=O)C(=O)N[C@@H](CCC(=O)O)C(=O)N[C@@H](CCCCN)C(=O)N[C@@H](CCC(N)=O)C(=O)N[C@@H](CCCCN)C(=O)N[C@@H](CCCCN)C(=O)N[C@@H](CCC(N)=O)C(=O)N[C@@H](CCCNC(=N)N)C(=O)N[C@@H](CCC(=O)O)C(=O)N[C@@H](CCC(N)=O)C(=O)N[C@@H](C)C(=O)N[C@@H](CCC(=O)O)C(=O)N[C@H](C(=O)N[C@@H](CC(N)=O)C(=O)NC(C)(C)C(=O)N[C@@H](CCC(N)=O)C(=O)N[C@H](C(=O)N[C@@H](CC(C)C)C(=O)N[C@@H](C)C(=O)N[C@@H](CCC(N)=O)C(=O)N[C@H](C(N)=O)C(C)C)[C@@H](C)CC)[C@@H](C)O)[C@@H](C)CC)[C@@H](C)CC)C(C)C)C(C)C [compound 186] (H-[NMeI]VLSLD[dV]PIKLK([γGlu-C12 diacid])KILLEQEKQKKQREQAETN[Aib]QILAQV-NH2)	0.79	2	> 250
CCCCC(=O)N[C@H](C(=O)N[C@@H](CC(C)C)C(=O)N[C@@H](CO)C(=O)N[C@@H](CC(C)C)C(=O)N[C@@H](CC(=O)O)C(=O)N[C@@H](C(=O)N1CCC[C@H]1C(=O)N[C@H](C(=O)N[C@@H](CCCCN)C(=O)N[C@@H](CC(C)C)C(=O)N[C@@H](CCCCNC(=O)COCCOCCNC(=O)COCCOCCNC(=O)CC[C@H](NC(=O)CCCCCCCCCCCCC(=O)O)C(=O)O)C(=O)N[C@@H](CCCCN)C(=O)N[C@H](C(=O)N[C@@H](CC(C)C)C(=O)N[C@@H](CC(C)C)C(=O)N[C@@H](CCC(=O)O)C(=O)N[C@@H](CCC(N)=O)C(=O)N[C@@H](CCC(=O)O)C(=O)N[C@@H](CCCCN)C(=O)N[C@@H](CCC(N)=O)C(=O)N[C@@H](CCCCN)C(=O)N[C@@H](CCCCN)C(=O)N[C@@H](CCC(N)=O)C(=O)N[C@@H](CCCNC(=N)N)C(=O)N[C@@H](CCC(=O)O)C(=O)N[C@@H](CCC(N)=O)C(=O)N[C@@H](C)C(=O)N[C@@H](CCC(=O)O)C(=O)N[C@H](C(=O)N[C@@H](CC(N)=O)C(=O)NC(C)(C)C(=O)N[C@@H](CCC(N)=O)C(=O)N[C@H](C(=O)N[C@@H](CC(C)C)C(=O)N[C@@H](C)C(=O)N[C@@H](CCC(N)=O)C(=O)N[C@H](C(N)=O)C(C)C)[C@@H](C)CC)[C@@H](C)O)[C@@H](C)CC)[C@@H](C)CC)C(C)C)C(C)C [compound 180] (Pentanoyl-VLSLD[dV]PIKLK([AEEA-AEEA-γGlu-C14 diacid])KILLEQEKQKKQREQAETN[Aib]QILAQV-NH2)	10.7	2	> 250
CCCCCCCCCCCC(=O)N[C@H](C(=O)N[C@@H](CC(C)C)C(=O)N[C@@H](CO)C(=O)N[C@@H](CC(C)C)C(=O)N[C@@H](CC(=O)O)C(=O)N[C@@H](C(=O)N1CCC[C@H]1C(=O)N[C@H](C(=O)N[C@@H](CCCCN)C(=O)N[C@@H](CC(C)C)C(=O)N[C@@H](CCCCNC(=O)CC[C@H](NC(=O)CCCCCCCCCCCCCCCCCCC(=O)O)C(=O)O)C(=O)N[C@@H](CCCCN)C(=O)N[C@H](C(=O)N[C@@H](CC(C)C)C(=O)N[C@@H](CC(C)C)C(=O)N[C@@H](CCC(=O)O)C(=O)N[C@@H](CCC(N)=O)C(=O)N[C@@H](CCC(=O)O)C(=O)N[C@@H](CCCCN)C(=O)N[C@@H](CCC(N)=O)C(=O)N[C@@H](CCCCN)C(=O)N[C@@H](CCCCN)C(=O)N[C@@H](CCC(N)=O)C(=O)N[C@@H](CCCNC(=N)N)C(=O)N[C@@H](CCC(=O)O)C(=O)N[C@@H](CCC(N)=O)C(=O)N[C@@H](C)C(=O)N[C@@H](CCC(=O)O)C(=O)N[C@H](C(=O)N[C@@H](CC(N)=O)C(=O)NC(C)(C)C(=O)N[C@@H](CCC(N)=O)C(=O)N[C@H](C(=O)N[C@@H](CC(C)C)C(=O)N[C@@H](C)C(=O)N[C@@H](CCC(N)=O)C(=O)N[C@H](C(N)=O)C(C)C)[C@@H](C)CC)[C@@H](C)O)[C@@H](C)CC)[C@@H](C)CC)C(C)C)C(C)C [compound 224] (Lauroyl-VLSLD[dV]PIKLK([γGlu-C20 diacid])KILLEQEKQKKQREQAETN[Aib]QILAQV-NH2)	0.07	66	–
CC[C@H](C)[C@H](NC(C)=O)C(=O)N[C@H](C(=O)N[C@@H](CC(C)C)C(=O)N[C@@H](CO)C(=O)N[C@@H](CC(C)C)C(=O)N[C@@H](CC(=O)O)C(=O)N[C@@H](C(=O)N1CCC[C@H]1C(=O)N[C@H](C(=O)N[C@@H](CCCCN)C(=O)N[C@@H](CC(C)C)C(=O)N[C@@H](CCCCNC(=O)COCCOCCNC(=O)COCCOCCNC(=O)CC[C@H](NC(=O)CCCCCCCCCCCCCCCCC(=O)O)C(=O)O)C(=O)N[C@@H](CCCCN)C(=O)N[C@H](C(=O)N[C@@H](CC(C)C)C(=O)N[C@@H](CC(C)C)C(=O)N[C@@H](CCC(=O)O)C(=O)N[C@@H](CCC(N)=O)C(=O)N[C@@H](CCC(=O)O)C(=O)N[C@@H](CCCCN)C(=O)N[C@@H](CCC(N)=O)C(=O)N[C@@H](CCCCN)C(=O)N[C@@H](CCCCN)C(=O)N[C@@H](CCC(N)=O)C(=O)N[C@@H](CCCNC(=N)N)C(=O)N[C@@H](CCC(=O)O)C(=O)N[C@@H](CCC(N)=O)C(=O)N[C@@H](C)C(=O)N[C@@H](CCC(=O)O)C(=O)N[C@H](C(=O)N[C@@H](CC(N)=O)C(=O)NC1(C(=O)N[C@@H](CCC(N)=O)C(=O)N[C@H](C(=O)N[C@@H](CC(C)C)C(=O)N[C@@H](C)C(=O)N[C@@H](CCC(N)=O)C(=O)N[C@H](C(N)=O)C(C)C)[C@@H](C)CC)CCNCC1)[C@@H](C)O)[C@@H](C)CC)[C@@H](C)CC)C(C)C)C(C)C [compound 109] (Ac-IVLSLD[dV]PIKLK([AEEA-AEEA-γGlu-C18 diacid])KILLEQEKQKKQREQAETN[Api]QILAQV-NH2)	1	4	> 250
CC[C@H](C)[C@H](NC(=O)[C@H](CCC(N)=O)NC(=O)C1(NC(=O)[C@H](CC(N)=O)NC(=O)[C@@H](NC(=O)[C@H](CCC(=O)O)NC(=O)[C@H](C)NC(=O)[C@H](CCC(N)=O)NC(=O)[C@H](CCC(=O)O)NC(=O)[C@H](CCCNC(=N)N)NC(=O)[C@H](CCC(N)=O)NC(=O)[C@H](CCCCN)NC(=O)[C@H](CCCCN)NC(=O)[C@H](CCC(N)=O)NC(=O)[C@H](CCCCN)NC(=O)[C@H](CCC(=O)O)NC(=O)[C@H](CCC(N)=O)NC(=O)[C@H](CCC(=O)O)NC(=O)[C@H](CC(C)C)NC(=O)[C@H](CC(C)C)NC(=O)[C@@H](NC(=O)[C@H](CCCCN)NC(=O)[C@H](CCCCNC(=O)CC[C@H](NC(=O)CCCCCCCCCCCCCCC(=O)O)C(=O)O)NC(=O)[C@H](CC(C)C)NC(=O)[C@H](CCCCN)NC(=O)[C@@H](NC(=O)[C@@H]2CCCN2C(=O)[C@H](NC(=O)[C@H](CC(=O)O)NC(=O)[C@H](CC(C)C)NC(=O)[C@H](CO)NC(=O)[C@H](CC(C)C)NC(=O)[C@@H](NC)C(C)C)C(C)C)[C@@H](C)CC)[C@@H](C)CC)[C@@H](C)O)CCNCC1)C(=O)N[C@@H](CC(C)C)C(=O)N[C@@H](C)C(=O)N[C@@H](CCC(N)=O)C(=O)N[C@H](C(N)=O)C(C)C [compound 160] (H-[NMeV]LSLD[dV]PIKLK([γGlu-C16 diacid])KILLEQEKQKKQREQAETN[Api]QILAQV-NH2)	2.08	2	> 250
